Test results taken from patent US20070087364A1, “In vitro erythroid micronucleus assay for genotoxicity” (Massachusetts Institute of Technology, priority 2005, published 2007).
“Also recorded” adds a separate entry of the source.

Key:
Lin^− bone marrow cells [1] = assay: erythropoietic growth of Lin− bone marrow quantified by flow cytometry (Ter-119/CD71) and total cell counts; type: cell-based, mouse; conditions: for Avg Growth +/− SD: SCF 0, 72 h
Protocol: FIG. 13 is a bar graph of data obtained from experiments performed to determined the effect of Epo on the erythropoietic growth of Lin− bone marrow cells. Lin^− bone marrow cells were cultured for 1 day in media containing serum along with Epo at variable concentrations. Epo was removed from the culture media at the end of 1 day, and culture was continued for 2 more days in media with serum. At the end of the third day, the resulting populations were removed from culture and erythropoietic growth was quantified as the product of total cell counts and flow cytometric region fractions. Specifically, erythroid-specific growth at two late stages was calculated for each culture by taking the product of the total cell count and the fraction of the population found to have the indicated surface phenotype (determined by flow cytometry). These erythroid growth values were then normalized to the number of Lin^− cells seeded.
Studies were conducted by stimulating Lin^− mouse BM with specifically defined media formulations for 24 hours before replacing the medium to a minimal erythroid-differentiation medium (EDM) and culturing for an additional 2-3 days. This EDM contains 20% FBS, 2 mM L-glutamine, and 0.1 mM β-mercaptoethanol in IMDM, whereas the “Day 1” medium consists of IMDM with 15% FBS, 2 mM L-glutamine, 0.1 mM β-mercaptoethanol, 1% BSA, 200 μg holo-transferrin, 10 μg/mL insulin as well as further supplements (some specific media formulations listed in Table I). Upon harvest, the number of late-stage erythroid cells and enucleated erythrocytes produced over the culture period was analyzed. […] Although the most relevant endpoint for these cultures is PCEs-produced per primary BM cell, the number of R4 and R5 cells in the post-culture population, as measured by flow ctyometry, provided a reasonable metric of PCE content for early screening studies. More rigorous quantification, via histological analysis, was then employed in a more detailed analysis to generate FIGS. 11, 12, 14 and 16.
As shown above, short-term erythropoietic culture can be used to detect genotoxic exposure. Quantitative studies on the erythropoietic growth of Lin^− BM after stimulus with physiologic erythropoietic factors were used to further improve the culture methodology and thus increase the potential throughput of the in vitro erythroid MN assay described here. Initially, flow cytometry was used to define late-erythroid cells by subdividing the Ter-119^+ population based on CD71 expression (regions shown in FIG. 4) to estimate the fraction of a culture that acquired late-erythroid surface markers. The products of flow cytometric region statistics and total cell counts were calculated and then normalized to input cell numbers to quantify erythropoietic growth in a culture.
Table II. in vitro erythroid growth is modulated by physiologic erythropoietic stimuli. The culture conditions listed on the left-hand side of the table specify the environment in which a growth measurement was made. All soluble growth factors used in these experiments were removed from culture after 1 day. An X in this first section of the table indicates the variable parameter found to have a significant erythropoietic growth-effect. The measured effect of that parameter on erythropoietic growth is then given on the right-hand side of the table. In this right-hand section of the table, the first item listed is the defining surface phenotype of the erythropoietic population. […] Finally, the level of significance (P value) is given. Note that the first 4 entries to this table were taken from FIG. 13; other entries were obtained from similar figures. P values were determined by the two-tailed t test, except for the 3 italicized P values, which were determined using the one-tailed t test.

Lin^− bone marrow cells [2] = assay: PCE growth of Lin− bone marrow by acridine orange histology, fractional-factorial design with regression; type: cell-based, mouse
Protocol: (FIG. 14A) Lin^− bone marrow cells were cultured for 1 day in media containing serum and various combinations of soluble growth factors as listed on the abscissa; these specific 6-factor combinations constitute an orthogonal fractional-factorial design (also represented in Table 1). After 1 day, all soluble erythropoietic growth factors were removed and the cells were cultured for either 2 or 3 additional days in medium with serum. At harvest, the cells were removed from culture and late erythropoietic growth was quantified. For each culture, PCE numbers were calculated by taking the product of the total cell count and the PCE fraction of the population as determined by differential cell counting after staining with acridine orange (>2000 cells scored per culture). Growth calculations were normalized to input cell numbers and are presented as the mean of 3 independent cultures +/− the standard deviation. (FIG. 14B) Culture methods that yielded similar populations at harvest were grouped into subsets (α, β, γ, and δ); growth characteristics for these subsets were quantified and representative micrographs were acquired. […] Cultures exposed to SCF but not Epo (subset γ) expanded approximately 2.5-fold in total cell numbers, but again contained less than 3% PCEs. Cultures exposed to both Epo and SCF (subset β) expanded approximately 13-fold in total cell numbers and yielded populations in which approximately 31% of all cells are PCEs. Finally, cultures exposed to both Epo and Dex but not SCF (subset δ) expanded approximately 4-fold while producing populations in which approximately 51% of all cells are PCEs. Growth calculations are presented as the mean of all cultures in a subset ± the standard deviation. Scale bars: 20 μm.
Table I is an experimental design chart that provides the specific details of the experimental conditions that were examined to generate FIGS. 11, 12, 14 and 16. Specifically, this experimental design is a two-level, minimum-aberration, fractional-factorial design of resolution IV (a 2IV^6-2 minimum-aberration design). The full-factorial design was not performed because an experiment of this size (2^6 cultures for each biological singlet) was logisitically infeasible. This experiment was designed in order to estimate all the main (primary) interactions between the culture response (PCEs produced) and the individual parameters included in the design. In addition, many of the secondary interactions (between the culture response and various parameter-pairs) were estimable by conducting this design (see FIGS. 12 and 16), although some of these secondary interactions were confounded with other secondary interactions. Each condition listed in the design table was tested in biological triplicate, and each triplicate set was cultured under three different atmospheric conditions, to yield a total of nine culture wells per listed condition.
Furthermore, some variability between various Lin^− BM isolations was observed over the course of preliminary flow cytometric studies. Therefore, a definitive study was conducted that used aliquots of a large, well-mixed Lin^− population that was isolated from the combined BM of 15 mice. In this study, flow cytometry was replaced by histological analysis to provide more rigorous quantification of a population's PCE content. This study was designed to estimate the relative stimulatory effect of various, previously-identified erythroid growth factors on culture performance. Specifically a minimum-aberration, fractional-factorial experimental design (a 2IV^6-2 minimum-aberration design) was conducted to estimate all the main (primary) interactions between the culture response, which was PCEs produced (as assessed by histology), and the individual parameters included in the design (see Table I, and FIGS. 11, 12, 14 and 16). […]

[3] = complete multi-linear regression model (n3=27), parameters scaled 0 to 1
[4] = reduced multi-linear regression model (n3=17), FIG. 16

With C[C@@H]1C[C@H]2[C@@H]3CCC4=CC(=O)C=C[C@]4(C)[C@@]3(F)[C@@H](O)C[C@]2(C)[C@@]1(O)C(=O)CO [Dex, Dexamethasone, reference compound] the “Avg Growth +/− SD” value (Lin^− bone marrow cells [1]; [Dex] = 1 μM, Ter-119+ CD71+, Epo 5 U/mL, CO2 0.5%, 20% O2, Fn 2, Ins 10, IGF-I 10 ng/mL) was 0.278 +/− 0.102 per Lin^− cell seeded, the “Avg Growth +/− SD” value (Lin^− bone marrow cells [1]; [Dex] = 1 μM, Ter-119+ CD71−, Epo 5 U/mL, CO2 0.5%, 20% O2, Fn 2, Ins 10, IGF-I 0) was 0.016 +/− 0.006 per Lin^− cell seeded and the “Avg Growth +/− SD” value (Lin^− bone marrow cells [1]; [Dex] = 10 μM, Ter-119+ CD71−, Epo 5 U/mL, CO2 0.5%, 20% O2, Fn 2, Ins 10, IGF-I 0) was 0.028 +/− 0.016 per Lin^− cell seeded. For the same compound, the “Scaled Estimate (model parameter, PCE growth)” value (“Scaled Estimate” for short) (Lin^− bone marrow cells [2]; [3]) was −0.298 and the “Scaled Estimate” value (Lin^− bone marrow cells [2]; [4]) was −0.333.
“Epo: erythropoietin (Amgen), essential component of the erythropoietic media formulation” was tested, and the “Avg Growth +/− SD” value (Lin^− bone marrow cells [1]; [Epo] = 2 U/mL (low-growth comparison), Ter-119+ CD71−, 5% CO2, 20% O2, Fn 2, Dex 0, Ins 10, IGF-I 0) was 0.141 +/− 0.019 per Lin^− cell seeded, the “Avg Growth +/− SD” value (Lin^− bone marrow cells [1]; [Epo] = 5 U/mL, Ter-119+ CD71−, 5% CO2, 20% O2, Fn 2 μg/sq cm, Dex 0, Ins 10 μg/mL, IGF-I 0) was 0.307 +/− 0.022 per Lin^− cell seeded and the “Avg Growth +/− SD” value (Lin^− bone marrow cells [1]; [Epo] = 10 U/mL, Ter-119+ CD71−, 5% CO2, 20% O2, Fn 2, Dex 0, Ins 10, IGF-I 0) was 0.380 +/− 0.050 per Lin^− cell seeded. The “Avg Growth +/− SD” value (Lin^− bone marrow cells [1]; [Epo] = 50 U/mL, Ter-119+ CD71−, 5% CO2, 20% O2, Fn 2, Dex 0, Ins 10, IGF-I 0) was 0.312 +/− 0.030 per Lin^− cell seeded, the “Avg Growth +/− SD” value (Lin^− bone marrow cells [1]; [Epo] = 500 U/mL, Ter-119+ CD71−, 5% CO2, 20% O2, Fn 2, Dex 0, Ins 10, IGF-I 0) was 0.314 +/− 0.019 per Lin^− cell seeded and the “level at which the erythropoietic stimulatory effect reached a maximum” value (Lin^− bone marrow cells [1]; cultured Lin− BM, Epo present for first day) was “approximately 10 U/mL”. The “relative size of growth effects by multi-linear regression, in words” value (Lin^− bone marrow cells [2]; FIG. 16) was “largest eyrthropoietic growth effect”, the “Scaled Estimate” value (Lin^− bone marrow cells [2]; [3]) was 3.136 and the “effect on PCE production / erythropoietic growth, statistical analysis of FIG. 12” value (Lin^− bone marrow cells [2]; primary and secondary effects, untreated cultures) was “major factors influencing erythropoietic growth; also recorded: the largest, and most statistically-significant, effect”. For the same compound, the “Scaled Estimate” value (Lin^− bone marrow cells [2]; [4]) was 3.130.
“IGF-I: Insulin-like Growth Factor I (R&D systems)” was tested, and the “effect on erythropoietic growth (erythropoietic flow cytometry), in words” value (Lin^− bone marrow cells [1]; preliminary flow cytometric studies, Lin− BM from C57BL/6J mice) was “had an effect on erythroid cell numbers”, the “Scaled Estimate” value (Lin^− bone marrow cells [2]; [3]) was −0.231 and the “Scaled Estimate” value (Lin^− bone marrow cells [2]; [4]) was −0.200.
Ins: recombinant human insulin (Sigma) was tested, and the “Avg Growth +/− SD” value (Lin^− bone marrow cells [1]; [Ins] = 10 μg/mL, Ter-119+ CD71+, Epo 5 U/mL, 5% CO2, 20% O2, Fn 0) was 1.743 +/− 0.107 per Lin^− cell seeded, the “Avg Growth +/− SD” value (Lin^− bone marrow cells [1]; [Ins] = 10 μg/mL, Ter-119+ CD71−, Epo 5 U/mL, 5% CO2, 20% O2, Fn 0) was 0.382 +/− 0.008 per Lin^− cell seeded and the “Avg Growth +/− SD” value (Lin^− bone marrow cells [1]; [Ins] = 100 μg/mL, Ter-119+ CD71+, Epo 5 U/mL, 5% CO2, 20% O2, Fn 0) was 2.096 +/− 0.121 per Lin^− cell seeded. The “Avg Growth +/− SD” value (Lin^− bone marrow cells [1]; [Ins] = 100 μg/mL, Ter-119+ CD71−, Epo 5 U/mL, 5% CO2, 20% O2, Fn 0) was 0.427 +/− 0.015 per Lin^− cell seeded.
